One experiment concerns the target T1, A-II-receptor (Bos taurus, UniProt P25104).
T1 construct: An A-II-receptor was prepared from the membrane fraction of bovine adrenal cortex; from tissue; host or cells: bovine adrenal cortex, membrane fraction
T1 sequence (P25104 1-359): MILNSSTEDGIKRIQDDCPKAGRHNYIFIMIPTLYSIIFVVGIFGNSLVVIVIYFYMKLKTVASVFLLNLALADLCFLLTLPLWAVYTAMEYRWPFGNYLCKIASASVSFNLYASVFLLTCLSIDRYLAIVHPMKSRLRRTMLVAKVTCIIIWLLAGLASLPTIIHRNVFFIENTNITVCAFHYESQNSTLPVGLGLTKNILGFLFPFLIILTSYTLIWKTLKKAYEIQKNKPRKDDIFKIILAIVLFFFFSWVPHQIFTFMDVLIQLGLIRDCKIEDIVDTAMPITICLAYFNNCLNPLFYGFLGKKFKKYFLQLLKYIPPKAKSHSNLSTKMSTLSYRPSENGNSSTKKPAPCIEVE
As to the kind of experiment: Inhibition of Binding of Angiotensin-II to Angiotensin Receptor (125I-A-II, membrane fraction of bovine adrenal cortex). The conditions noted are these: room temperature, one hour. Here is the method:
Inhibition of Binding of Angiotensin-II to Angiotensin Receptor
An experiment of inhibition on the binding of angiotensin-II (A-II) to A-II-receptor was conducted by modifying the method of Douglas et al. [Endocrinology, 102, 685-696 (1978)]. An A-II-receptor was prepared from the membrane fraction of bovine adrenal cortex.
The compound of the present invention (10^-6 M to 10^-8 M) and ^125 I-A-II (1.85 kBq/50 μl) were added to the receptor membrane fraction, and the mixture was incubated at room temperature for one hour. The receptor-bound and free ^125 I-A-II were separated through a filter (Whatman GF/B filter), and the radioactivity of ^125 I-A-II bound to the receptor was measured.

A further experiment has as its system Pressor Response to A II. As to the kind of experiment: Inhibitory Effect of the Compound on Pressor Action of A-II in rats. The format is in vivo, Jcl: SD rats. The conditions noted are these: Rattus norvegicus, po. An excerpt:
Inhibitory Effect of the Compound of the Present Invention on Pressor Action of A-II
Jcl: SD rats (9 week old, male) were used. On the day previous to the experiment, these animals were applied with cannulation into the femoral artery and vein under anesthesia with pentobarbital Na. The animals were fasted but allowed to access freely to drinking water until the experiment was started. Just on the day of conducting the experiment, the artery cannula was connected with a blood-pressure transducer, and the average blood pressure was recorded by means of polygraph. Before administration of the drug, the pressor action due to intravenous administration of A-II (100 ng/kg) as the control was measured. The drugs were orally administered, and then, at each point of the measurement, A-II was administered intravenously, and the pressor action was similarly measured. By comparing the pressor action before and after administration of the drug, the percent inhibition by the drug on A-II-induced pressor action was evaluated.

A further experiment relates to angiotensin II. The conditions noted are these: reported in the literature; cited from earlier work.

The values that follow come from US5162326A, “Pyrimidinedione derivatives, their production and use” (Takeda Chemical Industries, Ltd., priority 1990, dated 1992).

The structures appear in SMILES notation.

Turning to `CCCn1c(=O)cc(SC)n(Cc2ccc(-c3ccccc3-c3nn[nH]n3)cc2)c1=O` [compound 1], at A-II-receptor, the IC50 was 0.86 µM.

In turn, `CCCn1c(=O)cc(SCC)n(Cc2ccc(-c3ccccc3-c3nn[nH]n3)cc2)c1=O` [compound 2] had an IC50 on A-II-receptor of 0.02 µM. In the experiment with Pressor Response to A II, this molecule had an inhibition in vivo at 30 mg/kg of at least 70%.

On to `CCCSc1cc(=O)n(CCC)c(=O)n1Cc1ccc(-c2ccccc2-c2nnn[nH]2)cc1` [compound 3], for which the IC50 at A-II-receptor stood at 0.02 µM.

On to `CCCCSc1cc(=O)n(CCC)c(=O)n1Cc1ccc(-c2ccccc2-c2nn[nH]n2)cc1` [compound 4], for which, on A-II-receptor, the IC50 came to 0.04 µM. For the same molecule, the inhibition in vivo at 30 mg/kg with Pressor Response to A II was at least 70%.

On A-II-receptor, `CCCn1c(=O)cc(SC2CCCCC2)n(Cc2ccc(-c3ccccc3-c3nn[nH]n3)cc2)c1=O` [compound 5] returned an IC50 of 0.32 µM. Also, in the experiment on Pressor Response to A II, the inhibition in vivo at 30 mg/kg was 30 to 50%.

In turn, `CCCCCSc1cc(=O)n(CCC)c(=O)n1Cc1ccc(-c2ccccc2-c2nn[nH]n2)cc1` [compound 6] registered a half-inhibitory concentration (IC50) at A-II-receptor of 0.02 µM. Besides, the inhibition in vivo at 30 mg/kg with Pressor Response to A II lay in the range of 30 to 50%.

In turn, `CCCn1c(=O)cc(SCc2ccccc2)n(Cc2ccc(-c3ccccc3-c3nn[nH]n3)cc2)c1=O` [compound 7] registered an IC50 at A-II-receptor of 0.33 µM. This molecule also showed an inhibition in vivo at 30 mg/kg in the experiment with Pressor Response to A II below 30%.

The molecule `CCCn1c(=O)cc(OCC)n(Cc2ccc(-c3ccccc3-c3nn[nH]n3)cc2)c1=O` [compound 8] came in with a concentration for half-maximal inhibition (IC50) on A-II-receptor of 0.06 µM. The molecule further registered an inhibition in vivo at 30 mg/kg in the experiment on Pressor Response to A II of at least 70%.

As to `CCCCn1c(=O)cc(SCCC)n(Cc2ccc(-c3ccccc3-c3nn[nH]n3)cc2)c1=O` [compound 9], the IC50 at A-II-receptor turned out to be 0.04 µM. The same molecule had an inhibition in vivo at 30 mg/kg in the experiment with Pressor Response to A II of at least 70%.

`CCCCn1c(=O)cc(Sc2ccccc2)n(Cc2ccc(-c3ccccc3-c3nn[nH]n3)cc2)c1=O` [compound 10] gave an IC50 at A-II-receptor of 0.32 µM. The molecule also gave an inhibition in vivo at 30 mg/kg in the experiment with Pressor Response to A II below 30%.

The molecule `CCCNc1cc(=O)n(CCC)c(=O)n1Cc1ccc(-c2ccccc2-c2nn[nH]n2)cc1` [compound 14] had an IC50 on A-II-receptor of 0.34 µM. The molecule also displayed an inhibition in vivo at 30 mg/kg with Pressor Response to A II below 30%.

As to `CCCOc1cc(=O)n(CCC)c(=O)n1Cc1ccc(-c2ccccc2-c2nnn[nH]2)cc1` [compound 18], the IC50 on A-II-receptor is 0.14 µM. Moreover, the inhibition in vivo at 30 mg/kg in the experiment with Pressor Response to A II was at least 70%.

On A-II-receptor, `CCCc1cc(=O)n(CC)c(=O)n1Cc1ccc(-c2ccccc2-c2nn[nH]n2)cc1` [compound 23] showed an IC50 of 0.02 µM. In the experiment with Pressor Response to A II, the inhibition in vivo at 30 mg/kg is at least 70%.

On A-II-receptor, `CCCc1cc(=O)n(CCC)c(=O)n1Cc1ccc(-c2ccccc2-c2nn[nH]n2)cc1` [compound 25] displayed an IC50 of 0.02 µM. The same molecule registered an inhibition in vivo at 30 mg/kg in the experiment on Pressor Response to A II of at least 70%.

On to `CCCCn1c(=O)cc(CCC)n(Cc2ccc(-c3ccccc3-c3nn[nH]n3)cc2)c1=O` [compound 26], for which the 50% inhibitory concentration (IC50) at A-II-receptor was 0.02 µM. In addition, in the experiment on Pressor Response to A II, the inhibition in vivo at 30 mg/kg is at least 70%.

Molecule `CCCc1cc(=O)n(CC(=O)OC)c(=O)n1Cc1ccc(-c2ccccc2-c2nn[nH]n2)cc1` [compound 27] showed an IC50 on A-II-receptor of 0.01 µM. The molecule further registered an inhibition in vivo at 30 mg/kg in the experiment with Pressor Response to A II of at least 70%.

Molecule `CCCc1cc(=O)n(CC(=O)OCC)c(=O)n1Cc1ccc(-c2ccccc2-c2nn[nH]n2)cc1` [compound 28] showed a concentration for half-maximal inhibition (IC50) at A-II-receptor of 0.02 µM. The inhibition in vivo at 30 mg/kg with Pressor Response to A II is at least 70%.

On to `CNCC(=O)N[C@@H](CCCN=C(N)N)C(=O)N[C@H](C(=O)N[C@@H](Cc1ccc(O)cc1)C(=O)N[C@H](C(=O)N[C@@H](Cc1cnc[nH]1)C(=O)N1CCC[C@H]1C(=O)N[C@@H](C)C(=O)O)C(C)C)C(C)C` [saralasin], for which the “angiotensin II antagonistic activity” value in the experiment with angiotensin II is listed as “potent angiotensin II antagonistic activity”.
